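A five-concentration, 48-hour dose response in 96-well plates underlies each endpoint, interpolated linearly between surrounding concentrations. The concentration for 50% growth inhibition is given as GI50. TGI marks complete inhibition of growth.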
Legend:
Assay in all cases: growth of human tumour cells (NCI), 48 h
786-0 renal = tested on: 786-0 renal
A498 renal = tested on: A498 renal
A549 NSCLC = tested on: A549 NSCLC
ACHN renal = tested on: ACHN renal
BT-549 breast = tested on: BT-549 breast
CAKI-1 renal = tested on: CAKI-1 renal
CCRF-CEM leukemia = tested on: CCRF-CEM leukemia
COLO 205 colon = tested on: COLO 205 colon
DU-145 prostate = tested on: DU-145 prostate
EKVX NSCLC = tested on: EKVX NSCLC
HCC-2998 colon = tested on: HCC-2998 colon
HCT-116 colon = tested on: HCT-116 colon
HCT-15 colon = tested on: HCT-15 colon
HL-60(TB) leukemia = tested on: HL-60(TB) leukemia
HOP-62 NSCLC = tested on: HOP-62 NSCLC
HOP-92 NSCLC = tested on: HOP-92 NSCLC
HS 578T breast = tested on: HS 578T breast
HT29 colon = tested on: HT29 colon
IGROV1 ovarian = tested on: IGROV1 ovarian
K-562 leukemia = tested on: K-562 leukemia
KM12 colon = tested on: KM12 colon
LOX IMVI melanoma = tested on: LOX IMVI melanoma
M14 melanoma = tested on: M14 melanoma
MALME-3M melanoma = tested on: MALME-3M melanoma
MCF7 breast = tested on: MCF7 breast
MDA-MB-231 breast = tested on: MDA-MB-231 breast
MDA-MB-435 = tested on: MDA-MB-435
MDA-MB-468 breast = tested on: MDA-MB-468 breast
MOLT-4 leukemia = tested on: MOLT-4 leukemia
NCI-H226 lung = tested on: NCI-H226 lung
NCI-H23 lung = tested on: NCI-H23 lung
NCI-H460 lung = tested on: NCI-H460 lung
NCI-H522 lung = tested on: NCI-H522 lung
NCI/ADR-RES ovarian = tested on: NCI/ADR-RES ovarian
OVCAR-3 ovarian = tested on: OVCAR-3 ovarian
OVCAR-4 ovarian = tested on: OVCAR-4 ovarian
OVCAR-5 ovarian = tested on: OVCAR-5 ovarian
OVCAR-8 ovarian = tested on: OVCAR-8 ovarian
PC-3 prostate = tested on: PC-3 prostate
RPMI-8226 leukemia = tested on: RPMI-8226 leukemia
RXF 393 renal = tested on: RXF 393 renal
SF-268 CNS = tested on: SF-268 CNS
SF-295 CNS = tested on: SF-295 CNS
SF-539 CNS = tested on: SF-539 CNS
SK-MEL-2 melanoma = tested on: SK-MEL-2 melanoma
SK-MEL-28 melanoma = tested on: SK-MEL-28 melanoma
SK-MEL-5 melanoma = tested on: SK-MEL-5 melanoma
SK-OV-3 ovarian = tested on: SK-OV-3 ovarian
SN12C renal = tested on: SN12C renal
SNB-19 CNS = tested on: SNB-19 CNS
SNB-75 CNS = tested on: SNB-75 CNS
SR leukemia = tested on: SR leukemia
SW-620 colon = tested on: SW-620 colon
T-47D breast = tested on: T-47D breast
TK-10 renal = tested on: TK-10 renal
U251 CNS = tested on: U251 CNS
UACC-257 melanoma = tested on: UACC-257 melanoma
UACC-62 melanoma = tested on: UACC-62 melanoma
UO-31 renal = tested on: UO-31 renal

## CC1(C)CC[C@]2(C(=O)O)CC[C@]3(C)C(=CCC4[C@@]5(C)C[C@@H](O)[C@@H]6OC(c7ccco7)OC[C@@]6(C)C5CC[C@]43C)C2C1 (stereo partly drawn)
786-0 renal
  GI50: 18.9 µM
  TGI: 64.7 µM
A498 renal
  GI50: 14.1 µM
  TGI: 30.8 µM
A549 NSCLC
  GI50: 3.2 µM
  TGI: 20.2 µM
ACHN renal
  GI50: 0.111 µM
  TGI: 14.5 µM
BT-549 breast
  GI50: 6.78 µM
  TGI: 21.4 µM
CAKI-1 renal
  GI50: 21.3 µM
  TGI: 83.3 µM
CCRF-CEM leukemia
  GI50: 5.21 µM
  TGI: 30.3 µM
COLO 205 colon
  GI50: 0.11 µM
  TGI: 0.263 µM
DU-145 prostate
  GI50: 11.6 µM
  TGI: 85 µM
EKVX NSCLC
  GI50: 5.05 µM
  TGI: 21.9 µM
HCC-2998 colon
  GI50: 6.35 µM
  TGI: 20.4 µM
HCT-116 colon
  GI50: 5.01 µM
  TGI: 18.4 µM
HCT-15 colon
  GI50: 3.32 µM
  TGI: 15.8 µM
HL-60(TB) leukemia
  GI50: 9.31 µM
  TGI: 43.4 µM
HOP-62 NSCLC
  GI50: 7.06 µM
  TGI: 28.7 µM
HOP-92 NSCLC
  GI50: 5.97 µM
  TGI: 22.7 µM
HS 578T breast
  GI50: 11.1 µM
  TGI: 45.2 µM
HT29 colon
  GI50: 12.8 µM
  TGI: 41.5 µM
IGROV1 ovarian
  GI50: 11.7 µM
  TGI: 28 µM
K-562 leukemia
  GI50: 4.81 µM
  TGI: > 100 µM
KM12 colon
  GI50: 5.84 µM
  TGI: 23.4 µM
LOX IMVI melanoma
  GI50: 5.69 µM
  TGI: 19.1 µM
M14 melanoma
  GI50: 0.416 µM
  TGI: 16.8 µM
MALME-3M melanoma
  GI50: 0.191 µM
  TGI: 0.894 µM
MCF7 breast
  GI50: 8.83 µM
  TGI: 36.4 µM
MDA-MB-231 breast
  GI50: 16.2 µM
  TGI: 32.3 µM
MDA-MB-435
  GI50: 0.475 µM
  TGI: 15.4 µM
MDA-MB-468 breast
  GI50: 0.11 µM
  TGI: 6.03 µM
MOLT-4 leukemia
  GI50: 4.75 µM
  TGI: 33.7 µM
NCI-H226 lung
  GI50: 11.7 µM
  TGI: 36.1 µM
NCI-H23 lung
  GI50: 9.31 µM
  TGI: 23.2 µM
NCI-H460 lung
  GI50: 6.45 µM
  TGI: 19.9 µM
NCI-H522 lung
  GI50: 10.6 µM
  TGI: 28.1 µM
NCI/ADR-RES ovarian
  GI50: 6.62 µM
  TGI: 32.3 µM
OVCAR-3 ovarian
  GI50: 9.25 µM
  TGI: 23 µM
OVCAR-4 ovarian
  GI50: 16.6 µM
  TGI: 63.4 µM
OVCAR-5 ovarian
  GI50: 16.4 µM
  TGI: 30.6 µM
OVCAR-8 ovarian
  GI50: 10.3 µM
  TGI: 61.5 µM
PC-3 prostate
  GI50: 9.27 µM
  TGI: > 100 µM
RPMI-8226 leukemia
  GI50: 5.62 µM
  TGI: 71.2 µM
RXF 393 renal
  GI50: 13 µM
  TGI: 26.5 µM
SF-268 CNS
  GI50: 10.7 µM
  TGI: 31.8 µM
SF-295 CNS
  GI50: 5.3 µM
  TGI: 19.1 µM
SF-539 CNS
  GI50: 13.3 µM
  TGI: 26.4 µM
SK-MEL-2 melanoma
  GI50: 0.417 µM
  TGI: 13.7 µM
SK-MEL-28 melanoma
  GI50: 0.22 µM
  TGI: 15.7 µM
SK-MEL-5 melanoma
  GI50: 0.304 µM
  TGI: 1.2 µM
SK-OV-3 ovarian
  GI50: 27.1 µM
  TGI: > 100 µM
SN12C renal
  GI50: 11.8 µM
  TGI: 26.2 µM
SNB-19 CNS
  GI50: 3.97 µM
  TGI: 21.8 µM
SNB-75 CNS
  GI50: 6.35 µM
  TGI: 30.2 µM
SR leukemia
  GI50: 9.92 µM
  TGI: 51.4 µM
SW-620 colon
  GI50: 11.2 µM
  TGI: 25.4 µM
T-47D breast
  GI50: 15.6 µM
  TGI: > 100 µM
TK-10 renal
  GI50: 16.4 µM
  TGI: 68.9 µM
U251 CNS
  GI50: 1.47 µM
  TGI: 16.9 µM
UACC-257 melanoma
  GI50: 0.208 µM
  TGI: 0.913 µM
UACC-62 melanoma
  GI50: 0.312 µM
  TGI: 12.5 µM
UO-31 renal
  GI50: 6.95 µM
  TGI: 21.1 µM
